Results published in US20210147807A1, “METHODS FOR PURIFYING ENDODERM AND PANCREATIC ENDODERM CELLS DERIVED FROM HUMAN EMBRYONIC STEM CELLS” (HELMHOLTZ ZENTRUM MUNCHEN - DEUTSCHES FORSCHUNGSZENTRUM FUR …, priority 2017, published 2021).

What was measured:
[1] = system: CD177+ and CD275+ ADE subpopulations in the bulk CXCR4+ DE population; experiment: Modulation of ADE differentiation efficiency by BMP/TGF-β inhibitors during endoderm induction, FACS percentage of CD177+ and CD275+ ADE; format: cell-based, human; conditions: for percentage of CD275+ DE differentiation: combination of 2.5 μM DMH1 and 1 μM SB431542, endoderm differentiation until D4
Method: I-K) Pie charts representing the percentage of CD177+ and CD275+ ADE subpopulations generated using no inhibition of pathways (I, condition 1), with high inhibition of BMP signalling using BMP inhibitor DMH1 (J, condition 2) and with moderate BMP inhibition and low TGF-β inhibition (K, condition 3).
(§1) H9, Mel1-NKX6.1-GFPand iPSCs were cultured on 1:30 diluted Geltrex (Invitogen, U.K, Cat #A1413302) in StemMACS iPS-Brew medium (Miltenyi Biotech, Germany, Cat #130-104-368). At ^˜70-80% confluency, cultures were rinsed with 1×DPBS without Mg2+ and Ca2+ (Invitrogen, Cat #14190) followed by incubation with 0.5 mM EDTA (Applichem, Cat #12604-021) for 2-3 min at 37° C. Single cells were rinsed with iPS-Brew, and spun at 1,300 r.p.m. for 3 mins. The resulting cell pellet was suspended in iPS-Brew medium supplemented with Y-27632 (10 μM; Sigma-Aldrich; MO, Cat #Y0503) and the single cell suspension was seeded at ^˜1.5-2×10 s cells/cm2 on Geltrex-coated surfaces. Cultures were fed every day with iPS-Brew medium and differentiation was initiated 24 h following seeding, resulting in ^˜90% starting confluency. The cells were differentiated towards definitive endoderm using MCDB131 medium supplemented with 0.5% BSA (Sigma, Cat #10775835001), 100 ng/ml Activin A (Peprotech, Cat #120-14-300) and 25 ng/ml WNT3A (Peprotech, Cat #315-20) for the first day. For the next 2 days, the cells were treated with MCDB131 supplemented with 0.5% BSA and 100 ng/ml Activin A. For differentiation towards β cells, Rezania, et. al; 2014 β-cell differentiation protocol was used 14. In nutshell, the cells were differentiated towards primitive gut tube with MCDB131 supplemented with 0.5% BSA, 50 ng/ml of FGF7 (Peprotech, Cat #100-19-100) and 0.25 mM Vit.C (Sigma, Cat #120-14-300) for 2 days. For differentiation towards posterior foregut, the cells were further exposed to MCDB131 medium supplemented with 1xGlutamax (Gibco, Cat #A12860-01), 2% BSA (Cat #10775835001), 0.25 mM Vit. C (Sigma, Cat #A4544-25G), 50 ng/ml FGF7, 0.25 μM SANT-1 (Sigma, Cat #54572-5MG), 1 μM retinoic acid (Sigma, Cat #R2625-50MG), 100 nM LDN193189 (Sigma, Cat #04-0074), 1:200 ITS-X (Gibco, Cat #51500-056) and 200 nM TPB (Merk Millipore, Cat #565740-1MG) for 2 days. For the WNT inhibition experiment only, 1.25 μM of IWP2 (Tocris, Cat #3533-10) was added to the cultures. The cells were then further differentiated towards pancreatic endoderm using MCDB131 supplemented with 1xGlutamax, 10 mM final glucose concentration, 2% BSA, 0.25 mM Vit.C, 2 ng/ml FGF7, 0.25 μM SANT-1, 0.1 μM retinoic acid, 200 nM LDN193189, 1:200 ITS-X and 100 nM TPB for 3 days. […]

[2] = system: PDX1+/NKX6.1+ PP2 cells derived from CD177+, CD275+ and CXCR4+ subpopulations; experiment: Inhibition of WNT secretion during gut tube patterning, FACS for PDX1+/NKX6.1+ PP2 cells from sorted ADE subpopulations; format: cell-based, human; conditions: after addition of IWP2 (1.25 μM) at S2, 2D culture
Method: A) Overview of differentiation protocol towards pancreatic progenitors where inhibition of WNT secretion is performed at […] stage using IWP2 B-D) FACS quantification (B) and immunocytochemistry (C-D) for the percentage of cells expressing
PDX1+/NKX6.1+ generated from CD177+-, CD275+- and CXCR4+-ADE before (B, C), Scale bars, 50 μm and after (B, D) the treatment with IWP2. Scale bars, 20 μm.
as §1, with “Vit.” for “Vit. C (Sigma, Cat #A4544-25G), 50 ng/ml FGF7, 0.25 μM SANT-1 (Sigma, Cat #54572-5MG), 1 μM retinoic acid (Sigma, Cat #R2625-50MG), 100 nM LDN193189 (Sigma, Cat #04-0074), 1:200 ITS-X (Gibco, Cat #51500-056) and 200 nM TPB (Merk Millipore, Cat #565740-1MG) for 2 days. For the WNT inhibition experiment only, 1.25 μM of IWP2 (Tocris, Cat #3533-10) was added to the cultures. The cells were then further differentiated towards pancreatic endoderm using MCDB131 supplemented with 1xGlutamax, 10 mM final glucose concentration, 2% BSA, 0.25 mM Vit.C, 2 ng/ml FGF7, 0.25 μM SANT-1, 0.1 μM retinoic acid, 200 nM LDN193189, 1:200 ITS-X and 100 nM TPB for 3 days.”

[3] = standard differentiation without inhibitor 21%

| Structure (SMILES) | percentage of CD275+ ADE in the bulk CXCR4+ DE population ([1]; 4 μM DMH1 with 100 ng/ml AA, endoderm differentiation until D4, standard differentiation without inhibitor 21%) [%] | percentage of CD177+ ADE in the bulk CXCR4+ DE population ([1]; 4 μM DMH1 with 100 ng/ml AA, endoderm differentiation until D4, standard differentiation without inhibitor 35.5%) [%] | percentage of CD275+ DE differentiation [1, 3] [%] | percentage of PDX1+/NKX6.1+ PP2 cells derived from CD275+ ADE ([2]; without IWP2 approx. 30%) [%] | percentage of PDX1+/NKX6.1+ PP2 cells derived from CXCR4+ DE ([2]; without IWP2 approx. 45%) [%] | change in percentage of PDX1+/NKX6.1+ double positive PP2 cells in CD177+-derived PP2s ([2]; without IWP2 approx. 75%) |
| --- | --- | --- | --- | --- | --- | --- |
| CC(C)Oc1ccc(-c2cnc3c(-c4ccnc5ccccc45)cnn3c2)cc1 [DMH1] | 14 | 80.5 | 54.0 |  |  |  |
| NC(=O)c1ccc(-c2nc(-c3ccc4c(c3)OCO4)c(-c3ccccn3)[nH]2)cc1 [SB431542] |  |  | 54.0 |  |  |  |
| Cc1ccc2nc(NC(=O)CSc3nc4c(c(=O)n3-c3ccccc3)SCC4)sc2c1 [IWP2] |  |  |  | 50 | 75 | No differences were observed |
